{"source": "paper PMC6675120", "about": "“Potent and selective inhibitors for M32 metallocarboxypeptidases identified from high-throughput screening of anti-kinetoplastid chemical boxes” (PLoS Neglected Tropical Diseases, 2019)", "key": {"Purified rabbit lung ACE": {"molecular_target": "T1, Purified rabbit lung ACE (Oryctolagus cuniculus, UniProt P12822)", "T1 construct": "Purified rabbit lung ACE (EC 3.4.15.1) was purchased from Sigma-Aldrich; purchased Sigma-Aldrich; host or cells: rabbit lung tissue", "T1 sequence (P12822 34-1310)": "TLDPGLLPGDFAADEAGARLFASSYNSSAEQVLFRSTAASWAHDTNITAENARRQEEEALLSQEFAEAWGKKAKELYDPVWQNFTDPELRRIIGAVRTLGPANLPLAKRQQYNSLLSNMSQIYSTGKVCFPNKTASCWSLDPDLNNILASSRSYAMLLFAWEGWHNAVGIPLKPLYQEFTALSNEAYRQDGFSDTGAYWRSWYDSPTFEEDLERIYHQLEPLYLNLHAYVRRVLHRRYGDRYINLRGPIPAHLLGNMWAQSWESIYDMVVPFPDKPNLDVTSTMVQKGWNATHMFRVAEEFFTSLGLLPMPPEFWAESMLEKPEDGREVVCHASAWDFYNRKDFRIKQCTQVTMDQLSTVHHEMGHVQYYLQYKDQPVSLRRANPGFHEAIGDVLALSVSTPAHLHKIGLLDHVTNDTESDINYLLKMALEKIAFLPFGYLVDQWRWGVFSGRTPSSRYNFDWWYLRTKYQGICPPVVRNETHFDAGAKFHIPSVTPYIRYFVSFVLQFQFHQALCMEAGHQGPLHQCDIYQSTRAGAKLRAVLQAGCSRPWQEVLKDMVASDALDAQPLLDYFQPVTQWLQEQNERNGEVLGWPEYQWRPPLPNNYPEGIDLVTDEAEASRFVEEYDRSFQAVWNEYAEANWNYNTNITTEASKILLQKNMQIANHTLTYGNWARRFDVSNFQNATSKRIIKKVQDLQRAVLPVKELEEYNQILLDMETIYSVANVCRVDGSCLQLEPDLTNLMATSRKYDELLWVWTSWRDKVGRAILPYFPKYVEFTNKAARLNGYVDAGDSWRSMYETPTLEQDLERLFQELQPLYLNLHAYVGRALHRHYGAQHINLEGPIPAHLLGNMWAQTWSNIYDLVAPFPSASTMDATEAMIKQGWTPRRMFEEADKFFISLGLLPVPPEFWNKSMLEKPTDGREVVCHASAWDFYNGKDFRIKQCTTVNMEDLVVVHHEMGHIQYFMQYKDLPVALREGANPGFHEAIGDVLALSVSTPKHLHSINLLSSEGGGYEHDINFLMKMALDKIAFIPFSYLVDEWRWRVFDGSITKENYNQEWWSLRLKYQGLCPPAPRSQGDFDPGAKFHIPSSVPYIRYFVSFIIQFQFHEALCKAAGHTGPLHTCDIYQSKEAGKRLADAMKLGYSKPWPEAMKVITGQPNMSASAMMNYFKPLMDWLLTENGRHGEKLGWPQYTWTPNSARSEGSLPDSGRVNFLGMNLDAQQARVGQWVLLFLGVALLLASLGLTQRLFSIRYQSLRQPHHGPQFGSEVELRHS", "experiment": "ACE assay with Abz-FRK(Dnp)P-OH, dose-response", "assay_type": "biochemical", "conditions": "dose-response 7,5 pM to 62,5 μM", "protocol": "Because M32 MCPs show a strong topological similarity with ACE [22], we chose this enzyme to estimate the IC50 value for each molecule.\n(A) Purified rabbit lung ACE was assayed at 37°C in 0,1 M Tris-HCl pH 7,0 buffer containing 50 mM NaCl, 10 mM ZnCl2 and 0,01% Triton X-100. […] NI, no inhibitor added. […] In all cases, solid lines represent the best fit of four-parameter Hill equation to experimental data (closed circles).\nPurified rabbit lung ACE (EC 3.4.15.1) was purchased from Sigma-Aldrich. Enzyme activity was assayed fluorimetrically with Abz-FRK(Dnp)P-OH (ex/em = 320/420 nm) as substrate in buffer 0,1 M Tris-HCl, 50 mM NaCl, 10 mM ZnCl2, pH 7.0 containing 0,01% Triton X-100 as indicated in [23]."}, "T. cruzi": {"system": "T. cruzi", "set-up": "method as in https://pubchem.ncbi.nlm.nih.gov/compound/91800813", "conditions": "ref https://pubchem.ncbi.nlm.nih.gov/compound/91800813; cited from earlier work"}, "cruzipain": {"system": "cruzipain", "set-up": "method as in PMID 28935948", "conditions": "at 25 μM; cited from earlier work"}}}
{"smiles": "N#Cc1ccc(S(=O)(=O)N2CCN(Cc3cccc(-c4ccncc4)c3)CC2)cc1", "note": "[TCMDC-143620]", "values": [{"measurement": "ACE inhibition", "setting": "Purified rabbit lung ACE", "result": "inactive"}, {"measurement": "activity against T. cruzi in culture", "setting": "T. cruzi", "result": "potent activity"}, {"measurement": "cruzipain inhibition", "setting": "cruzipain", "result": "~ 7,5%"}]}
